Biological target: T1, HSA (Homo sapiens, UniProt P02768)
T1 construct: purchased Sigma-Aldrich
Assay: FRET parameters between HSA donor fluorophores and MCD acceptors
Assay type: binding
Conditions: MCD acceptor
From the text: Quenching of intrinsic fluorescence of HSA can occur, in particular, due to energy transfer (Förster resonance energy transfer, FRET) from protein donor fluorophores to MCD acceptor molecules. In the MCD–HSA system, complexation brings acceptors and donors closer together and facilitates FRET. FRET is likely because HSA fluorescence and MCD absorption spectra overlap. For MCD and HSA, the overlap integrals J (see Equation (S7) in Supplementary Materials) were obtained in the order of 2.0–7.0 × 10^15 mol^−1 cm^−1 nm^4 (for MCD 4 see Figure S15 in Supplementary Materials). […] This is probably due to the strong aggregation of MCD 3 in the presence of HSA, which decreases the concentration of monomeric dye molecules active in fluorescence quenching (see Supplementary Materials, Figure S8). […] But as the dye concentration increases, its aggregation is built up steeply, and the fluorescence quenching diminishes.
The parameters of FRET between albumin donor chromophores (tyrosine and tryptophan amino acid residues of HSA) and acceptors (MCD 1–4 molecules) were determined from the spectral fluorescent data using the standard formulae for the spectral overlap integral J (M^−1 cm^−1 nm^4) and critical radius of energy transfer R0 (see Supplementary Material, Equations (S7) and (S8), respectively). […]

T1 sequence (P02768 25-609): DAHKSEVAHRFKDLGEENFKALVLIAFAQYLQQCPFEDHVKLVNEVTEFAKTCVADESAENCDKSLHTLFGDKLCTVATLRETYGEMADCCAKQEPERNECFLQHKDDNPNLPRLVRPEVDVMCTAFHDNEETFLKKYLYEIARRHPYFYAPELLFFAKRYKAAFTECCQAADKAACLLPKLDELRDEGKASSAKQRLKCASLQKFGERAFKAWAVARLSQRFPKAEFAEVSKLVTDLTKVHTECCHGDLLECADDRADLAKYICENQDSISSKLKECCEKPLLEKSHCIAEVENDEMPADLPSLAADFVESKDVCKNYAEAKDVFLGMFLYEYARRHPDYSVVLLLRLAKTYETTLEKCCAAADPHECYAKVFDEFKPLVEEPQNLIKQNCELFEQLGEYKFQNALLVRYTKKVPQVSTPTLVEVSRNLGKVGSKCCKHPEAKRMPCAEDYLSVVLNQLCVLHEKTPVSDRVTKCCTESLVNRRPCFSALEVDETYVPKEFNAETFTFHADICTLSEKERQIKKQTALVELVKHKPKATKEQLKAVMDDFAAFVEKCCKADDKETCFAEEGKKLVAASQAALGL

CCN1/C(=C/c2sc3ccccc3[n+]2CC)Sc2ccccc21 [MCD 3]
R0, Förster critical radius: ~ 50 Å
